Experimental findings from publication PMC2631173 (Chemistry & biology, 2008) are described below.

The experiment has as its target cellular retinoic acid-binding protein I (CRABP I), CPG variant (Mus musculus, UniProt P62965, R132Q). Kind of experiment: fluorescence equilibrium titration of […] FlAsH with purified protein, […] EDT.

SMILES strings stand for the structures.

cellular retinoic acid-binding protein I (CRABP I), CPG variant, sequence (P62965 2-137 R132Q): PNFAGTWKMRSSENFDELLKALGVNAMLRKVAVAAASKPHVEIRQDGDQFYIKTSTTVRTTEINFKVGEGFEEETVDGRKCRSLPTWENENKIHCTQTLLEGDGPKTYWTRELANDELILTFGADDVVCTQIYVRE

With `O=C1OC2(c3ccccc31)c1ccc(O)c([As]3SCCS3)c1Oc1c2ccc(O)c1[As]1SCCS1` [FlAsH], the Kd worked out at 400 nM.
